Results published in the supplement of paper PMC10307832.

What was measured:
Assay in all cases: relative viability (nuclei count vs DMSO), 5 days (fraction); higher = more cells survive
CX-5461 + Olaparib = compound: Cc1cnc(CNC(=O)c2c(=O)c3ccc(N4CCCN(C)CC4)nc3n3c2sc2ccccc23)cn1 [CX-5461] + O=C(c1cc(Cc2n[nH]c(=O)c3ccccc23)ccc1F)N1CCN(C(=O)C2CC2)CC1 [Olaparib] (partner 8 µM)
Summary of the method: (§1)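 Values are medians from duplicate plates. Each reflects relative viability, defined as the nuclei count of treated wells over that of vehicle wells. Lung cancer cell lines in 1536-well plates were pin-tool dosed one day after seeding with one drug alone or with a fixed anchor-drug dose plus five library-drug doses (not always all listed) in √10 steps, then fixed, stained and imaged at 4× after 5 days.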

CX-5461 + Lapatinib = compound: Cc1cnc(CNC(=O)c2c(=O)c3ccc(N4CCCN(C)CC4)nc3n3c2sc2ccccc23)cn1 [CX-5461] + CS(=O)(=O)CCNCc1ccc(-c2ccc3ncnc(Nc4ccc(OCc5cccc(F)c5)c(Cl)c4)c3c2)o1 [Lapatinib] (partner 2 µM)
Summary of the method: as §1

CX-5461 + Tozasertib = compound: Cc1cnc(CNC(=O)c2c(=O)c3ccc(N4CCCN(C)CC4)nc3n3c2sc2ccccc23)cn1 [CX-5461] + Cc1cc(Nc2cc(N3CCN(C)CC3)nc(Sc3ccc(NC(=O)C4CC4)cc3)n2)n[nH]1 [Tozasertib] (partner 0.1 µM)
Summary of the method: as §1

CX-5461 + Bortezomib = compound: Cc1cnc(CNC(=O)c2c(=O)c3ccc(N4CCCN(C)CC4)nc3n3c2sc2ccccc23)cn1 [CX-5461] + CC(C)C[C@H](NC(=O)[C@H](Cc1ccccc1)NC(=O)c1cnccn1)B(O)O [Bortezomib] (partner 0.002 µM)
Summary of the method: as §1

Cell Line	relative viability (CX-5461 + Olaparib; first compound 0.01 µM)	relative viability (CX-5461 + Olaparib; first compound 0.03162 µM)	relative viability (CX-5461 + Olaparib; first compound 0.1 µM)	relative viability (CX-5461 + Olaparib; first compound 0.3162 µM)	relative viability (CX-5461 + Olaparib; first compound 1 µM)	relative viability (CX-5461 + Lapatinib; first compound 0.01 µM)	relative viability (CX-5461 + Lapatinib; first compound 0.03162 µM)	relative viability (CX-5461 + Lapatinib; first compound 0.1 µM)	relative viability (CX-5461 + Lapatinib; first compound 0.3162 µM)	relative viability (CX-5461 + Lapatinib; first compound 1 µM)	relative viability (CX-5461 + Tozasertib; first compound 0.01 µM)	relative viability (CX-5461 + Tozasertib; first compound 0.03162 µM)	relative viability (CX-5461 + Tozasertib; first compound 0.1 µM)	relative viability (CX-5461 + Tozasertib; first compound 0.3162 µM)	relative viability (CX-5461 + Tozasertib; first compound 1 µM)	relative viability (CX-5461 + Bortezomib; first compound 0.01 µM)	relative viability (CX-5461 + Bortezomib; first compound 0.03162 µM)	relative viability (CX-5461 + Bortezomib; first compound 0.1 µM)	relative viability (CX-5461 + Bortezomib; first compound 0.3162 µM)	relative viability (CX-5461 + Bortezomib; first compound 1 µM)
LU99A	0.27	0.241	0.297	0.221	0.284	0.859	1.02	0.86	0.56	0.213	0.265	0.259	0.253	0.241	0.272	1.1	1.02	0.977	0.868	0.417
ABC-1	0.798		1.04	0.594	0.517	1.17	1.32	1.04		1.05	0.15	0.194	0.188		0.186	0.297	0.282		0.206	0.313
NCI-H2347	0.57	0.648	0.606	0.477	0.517	0.941	0.931	0.963	0.524	0.778	0.544	0.563	0.474	0.536	0.454	1.06	1.21	0.836	0.854	0.941
NCI-H1993	1.19	1.1	1.1	0.976	1.01	0.769	0.84	0.881	0.802	0.762	0.614	0.585	0.566	0.599	0.556	1.09	1.18	1.14	0.944	0.937
NCI-H322M	0.761	0.773	0.691	0.5	0.511	0.552	0.564	0.644		0.655	0.441	0.508	0.49	0.503	0.443	1.2	1.35	1.26		1.23
NCI-H838	0.863	0.846	0.726	0.726	0.476	1.17	1.11	1.05	0.252	0.6	0.249	0.281	0.271		0.273	0.902	0.85	0.979	0.29	0.646
HARA	0.82	0.67	0.793	0.876	0.556	0.904	0.921	0.84	0.861	0.348	0.137	0.115	0.138		0.189	1.01	1.28	1.13	1.06	0.809
NCI-H2087	0.683	0.68	0.583	0.602	0.471	1.13	1.18	1.18	0.407	0.507	0.208	0.276	0.243	0.265	0.159	0.812	0.884	0.781	1.07	0.525
NCI-H1437	0.654	0.643	0.528	0.648	0.567	0.779	0.869		0.519	0.528	0.404	0.459		0.367	0.366	0.45	0.423		0.369	0.316
NCI-H650	0.369	0.399	0.399	0.329	0.337	0.94	1.01	0.915	0.312	0.934	0.735	0.815	0.715	0.324	0.54	0.887	0.832	0.739	0.594	0.483
COR-L23	0.36	0.338	0.299	0.3	0.185	1.08	0.833	0.674	0.804	0.414	0.246	0.202	0.176	0.182	0.119	0.831	1.05	0.813	1.04	0.474
COR-L 105	0.658	0.654	0.718	0.675	0.447	0.363	0.405	0.376	0.265	0.267	0.342	0.339	0.4	0.371	0.306	0.841	0.701	0.492	0.385	0.416
201T	0.888	0.841	0.856	0.84	0.793	1.01	1.06	1.03	0.82	0.981	0.921	1.04	0.945	0.847	0.925	1.16	1.15	1.08	1.14	1.05
HCC-44	0.966	1.04	1.03	1	1.01	0.972	1.01	0.994	1.01	0.69	1.05	1.25	0.922	0.811	0.29	0.898	0.973	0.844	0.838	0.807
NCI-H596	0.719	0.715	0.626	1.13	0.676	1.07	1.09	0.96	1.1	0.628	0.866	1.04	0.984	0.863	0.796	0.948		0.594	1.03	0.529
H3255	0.558	0.543	0.578	0.531	0.497	0.237	0.236	0.263	0.167	0.236	0.691	0.603	0.694	0.568	0.527	0.878	0.791	0.775	0.464	0.789
